Among the data in US12673961B2 (Agios Pharmaceuticals, Inc., priority 2022, dated 2026) are AC50 values, retold here.

The structures appear in SMILES notation.

The target in one test is T1, human PAH with the R408W mutation (Homo sapiens, UniProt P00439, R408W).
T1 construct: expressed in transfected cells
T1 sequence (P00439 1-452 R408W): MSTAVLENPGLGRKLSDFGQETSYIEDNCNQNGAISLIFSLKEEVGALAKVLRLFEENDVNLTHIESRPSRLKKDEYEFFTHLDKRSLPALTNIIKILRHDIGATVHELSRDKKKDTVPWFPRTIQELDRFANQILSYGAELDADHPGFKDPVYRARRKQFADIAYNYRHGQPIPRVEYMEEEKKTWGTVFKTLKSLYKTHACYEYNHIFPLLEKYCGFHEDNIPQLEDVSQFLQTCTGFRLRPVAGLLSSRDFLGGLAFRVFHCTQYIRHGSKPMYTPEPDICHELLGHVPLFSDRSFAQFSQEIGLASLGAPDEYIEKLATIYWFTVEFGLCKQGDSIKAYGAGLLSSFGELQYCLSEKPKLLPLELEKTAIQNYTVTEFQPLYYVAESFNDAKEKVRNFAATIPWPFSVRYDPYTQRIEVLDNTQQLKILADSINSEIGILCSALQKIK
Briefly: Cell Based Phenylalanine Flux Assay.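 Further: Ten-point dose curve from 2-fold serial dilutions, run in duplicate at 0.5% DMSO final, tracer step used 20 µM sepiapterin and 800 µM labeled phenylalanine.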 The note with it: A375 cells expressing human R408W PAH; 24 hrs compound incubation; 13C-Tyrosine by LC-MS; average where tested multiple times; read-out: AC50.
Consider `Cn1nc(C(F)F)cc1C(=O)N1CCc2[nH]cnc2[C@H]1c1cc2cccc(C(F)(F)F)n2n1` [Example 1386, (S)-(3-(difluoromethyl)-1-methyl-1H-pyrazol-5-yl)(4-(7-(trifluoromethyl)pyrazolo [1,5-a]pyridin-2-yl)-6,7-dihydro-1H-imidazo[4,5-c]pyridin-5(4H)-yl)methanone], for which the AC50 (as a rule, the midpoint of the concentration-response curve, whichever way the signal moves) lay in the range of 500 to 1000 nM.

The test is the same for the next values; noted with them: A375 cells expressing human R408W PAH; 24 hrs with compound, then sepiapterin and 13C9,15N-Phenylalanine for 4 hours; 13C-Tyrosine by LC-MS; average where tested multiple times; read-out: AC50.
For the compound `Cc1cccc(-c2nnc(C(=O)N3CCc4[nH]cnc4[C@H]3c3cc4cccc(C)n4n3)o2)n1` [Example 1398, (S)-(4-(7-methylpyrazolo [1,5-a]pyridin-2-yl)-6,7-dihydro-1H-imidazo[4,5-c]pyridin-5(4H)-yl)(5-(6-methylpyridin-2-yl)-1,3,4-oxadiazol-2-yl)methanone], the AC50 was less than 500 nM.
The same measure, in the same setting: with `Cn1cc(-c2nnc(C(=O)N3CCc4[nH]cnc4[C@H]3c3cc4cccc(C(F)F)n4n3)o2)cn1` [Example 1406, (S)-(4-(7-(difluoromethyl)pyrazolo[1,5-a]pyridin-2-yl)-6,7-dihydro-1H-imidazo [4,5-c]pyridin-5(4H)-yl)(5-(1-methyl-1H-pyrazol-4-yl)-1,3,4-oxadiazol-2-yl)methanone] the figure was less than 500 nM; with `O=C(c1nnc(-c2cnccn2)o1)N1CCc2[nH]cnc2[C@H]1c1cc2c(C(F)F)cccn2n1` [Example 1414, (S)-(4-(4-(difluoromethyl)pyrazolo[1,5-a]pyridin-2-yl)-6,7-dihydro-1H-imidazo [4,5-c]pyridin-5(4H)-yl)(5-(pyrazin-2-yl)-1,3,4-oxadiazol-2-yl)methanone], less than 500 nM.
Turning to `O=C(c1nnc(-c2cnccn2)o1)N1CCc2[nH]cnc2[C@@H]1c1cc2c(C(F)F)cccn2n1` [Example 1415, (R)-(4-(4-(difluoromethyl)pyrazolo[1,5-a]pyridin-2-yl)-6,7-dihydro-1H-imidazo [4,5-c]pyridin-5(4H)-yl)(5-(pyrazin-2-yl)-1,3,4-oxadiazol-2-yl)methanone], the AC50 was in the range of 1000 to 5000 nM.
On the same count and under the same terms, with `O=C(c1cnn2cc(-c3ccccn3)ccc12)N1CCc2[nH]cnc2[C@H]1c1cc2ccccn2n1` [Example 1416, (S)-(4-(pyrazolo[1,5-a]pyridin-2-yl)-6,7-dihydro-1H-imidazo[4,5-c]pyridin-5(4H)-yl)(6-(pyridin-2-yl)pyrazolo[1,5-a]pyridin-3-yl)methanone] the figure was less than 500 nM.
Consider `CC(C)(C)c1nnc(C(=O)N2CCc3[nH]cnc3[C@H]2c2cc3cccc(C(F)F)n3n2)o1` [Example 1419, (S)-(5-(tert-butyl)-1,3,4-oxadiazol-2-yl)(4-(7-(difluoromethyl)pyrazolo [1,5-a]pyridin-2-yl)-6,7-dihydro-1H-imidazo[4,5-c]pyridin-5(4H)-yl)methanone], for which the AC50 is 500 to 1000 nM.
Still for that read-out and setting: in the case of `O=C(c1nnc(-c2ccccn2)o1)N1CCc2[nH]cnc2[C@@H]1c1cc2cccc(C(F)F)n2n1` [Example 1420, (R)-(4-(7-(difluoromethyl)pyrazolo[1,5-a]pyridin-2-yl)-6,7-dihydro-1H-imidazo [4,5-c]pyridin-5(4H)-yl)(5-(pyridin-2-yl)-1,3,4-oxadiazol-2-yl)methanone] it was greater than 5000 nM; in that of `O=C(c1nnc(-c2cccnc2)o1)N1CCc2[nH]cnc2[C@@H]1c1cc2c(C(F)F)cccn2n1` [Example 1423, (R)-(4-(4-(difluoromethyl)pyrazolo[1,5-a]pyridin-2-yl)-6,7-dihydro-1H-imidazo [4,5-c]pyridin-5(4H)-yl)(5-(pyridin-3-yl)-1,3,4-oxadiazol-2-yl)methanone], greater than 5000 nM; in that of `COc1ccc(-c2nnc(C(=O)N3CCc4[nH]cnc4[C@H]3c3cc4c(C(F)F)cccn4n3)o2)nc1` [Example 1424, (S)-(4-(4-(difluoromethyl)pyrazolo[1,5-a]pyridin-2-yl)-6,7-dihydro-1H-imidazo [4,5-c]pyridin-5(4H)-yl)(5-(5-methoxypyridin-2-yl)-1,3,4-oxadiazol-2-yl)methanone], less than 500 nM.
With `Cc1cccc(-c2nnc(C(=O)N3CCc4[nH]cnc4[C@@H]3c3cc4c(C)cccn4n3)o2)n1` [Example 1428, (R)-(4-(4-methylpyrazolo [1,5-a]pyridin-2-yl)-6,7-dihydro-1H-imidazo[4,5-c]pyridin-5(4H)-yl)(5-(6-methylpyridin-2-yl)-1,3,4-oxadiazol-2-yl)methanone], the half-maximal activity concentration (AC50) is greater than 5000 nM.
For `Cc1cccc(-c2nnc(C(=O)N3CCc4[nH]cnc4[C@H]3c3cc4c(C)cccn4n3)o2)n1` [Example 1429, (S)-(4-(4-methylpyrazolo [1,5-a]pyridin-2-yl)-6,7-dihydro-1H-imidazo[4,5-c]pyridin-5(4H)-yl)(5-(6-methylpyridin-2-yl)-1,3,4-oxadiazol-2-yl)methanone], the half-maximal activity concentration (AC50) was less than 500 nM.
Same read-out and setting: in the case of `Cc1cccc(-c2nnc(C(=O)N3CCc4[nH]cnc4[C@H]3c3cc4c(Cl)cccn4n3)o2)n1` [Example 1431, (S)-(4-(4-chloropyrazolo [1,5-a]pyridin-2-yl)-6,7-dihydro-1H-imidazo[4,5-c]pyridin-5(4H)-yl)(5-(6-methylpyridin-2-yl)-1,3,4-oxadiazol-2-yl)methanone] it was less than 500 nM; in that of `Cc1cccc(-c2nnc(C(=O)N3CCc4[nH]cnc4[C@H]3c3cc4c(C(F)(F)F)cccn4n3)o2)n1` [Example 1433, (S)-(5-(6-methylpyridin-2-yl)-1,3,4-oxadiazol-2-yl)(4-(4-(trifluoromethyl)pyrazolo [1,5-a]pyridin-2-yl)-6,7-dihydro-1H-imidazo[4,5-c]pyridin-5(4H)-yl)methanone], less than 500 nM; in that of `Cn1ccc(-c2ccc3c(C(=O)N4CCc5[nH]cnc5[C@H]4c4cc5ccccn5n4)cnn3c2)n1` [Example 1434, (S)-(6-(1-methyl-1H-pyrazol-3-yl)pyrazolo[1,5-a]pyridin-3-yl)(4-(pyrazolo [1,5-a]pyridin-2-yl)-6,7-dihydro-1H-imidazo[4,5-c]pyridin-5(4H)-yl)methanone], 500 to 1000 nM.
Still for that read-out and setting: in the case of `Cn1ccc(-c2ccc3c(C(=O)N4CCc5[nH]cnc5[C@@H]4c4cc5ccccn5n4)cnn3c2)n1` [Example 1435, (R)-(6-(1-methyl-1H-pyrazol-3-yl)pyrazolo[1,5-a]pyridin-3-yl)(4-(pyrazolo [1,5-a]pyridin-2-yl)-6,7-dihydro-1H-imidazo[4,5-c]pyridin-5(4H)-yl)methanone] it was 1000 to 5000 nM.
Still for that read-out and setting: in the case of `CC(C)(F)c1nnc(C(=O)N2CCc3[nH]cnc3[C@H]2c2cc3cccc(C(F)F)n3n2)o1` [Example 1436, (S)-(4-(7-(difluoromethyl)pyrazolo[1,5-a]pyridin-2-yl)-6,7-dihydro-1H-imidazo[4,5-c]pyridin-5(4H)-yl)(5-(2-fluoropropan-2-yl)-1,3,4-oxadiazol-2-yl)methanone] it was 500 to 1000 nM; in that of `CC(C)(F)c1nnc(C(=O)N2CCc3[nH]cnc3[C@@H]2c2cc3cccc(C(F)F)n3n2)o1` [Example 1437, (R)-(4-(7-(difluoromethyl)pyrazolo[1,5-a]pyridin-2-yl)-6,7-dihydro-1H-imidazo[4,5-c]pyridin-5(4H)-yl)(5-(2-fluoropropan-2-yl)-1,3,4-oxadiazol-2-yl)methanone], 1000 to 5000 nM; in that of `O=C(c1nnc(-c2ccn(C(F)F)n2)o1)N1CCc2[nH]cnc2[C@@H]1c1cc2cccc(C(F)F)n2n1` [Example 1443, (R)-(5-(1-(difluoromethyl)-1H-pyrazol-3-yl)-1,3,4-oxadiazol-2-yl)(4-(7-(difluoromethyl)pyrazolo[1,5-a]pyridin-2-yl)-6,7-dihydro-1H-imidazo[4,5-c]pyridin-5(4H)-yl)methanone], 1000 to 5000 nM.
As for `Cc1cccc2cc([C@@H]3c4nc[nH]c4CCN3C(=O)c3nnc(-c4cnn(C(F)(F)F)c4)o3)nn12` [Example 1446, (S)-(4-(7-methylpyrazolo [1,5-a]pyridin-2-yl)-6,7-dihydro-1H-imidazo[4,5-c]pyridin-5(4H)-yl)(5-(1-(trifluoromethyl)-1H-pyrazol-4-yl)-1,3,4-oxadiazol-2-yl)methanone], the AC50 lay within 500 to 1000 nM.
The same measure, in the same setting: in the case of `CC(C)c1nnc(C(=O)N2CCc3[nH]cnc3[C@@H]2c2cc3c(F)cccn3n2)o1` [Example 1453, (R)-(4-(4-fluoropyrazolo [1,5-a]pyridin-2-yl)-6,7-dihydro-1H-imidazo[4,5-c]pyridin-5(4H)-yl)(5-isopropyl-1,3,4-oxadiazol-2-yl)methanone] it was greater than 5000 nM.
Same read-out and setting: with `Cc1nn(C)cc1-c1nnc(C(=O)N2CCc3[nH]cnc3[C@H]2c2cc3c(C(F)F)cccn3n2)o1` [Example 1466, (S)-(4-(4-(difluoromethyl)pyrazolo[1,5-a]pyridin-2-yl)-6,7-dihydro-1H-imidazo[4,5-c]pyridin-5(4H)-yl)(5-(1,3-dimethyl-1H-pyrazol-4-yl)-1,3,4-oxadiazol-2-yl)methanone] the figure was less than 500 nM.
For the compound `Cc1cccc(-c2nnc(C(=O)N3CCc4[nH]cnc4[C@@H]3c3cc4c(F)cccn4n3)o2)n1` [Example 1471, (R)-(4-(4-fluoropyrazolo [1,5-a]pyridin-2-yl)-6,7-dihydro-1H-imidazo[4,5-c]pyridin-5(4H)-yl)(5-(6-methylpyridin-2-yl)-1,3,4-oxadiazol-2-yl)methanone], the concentration at half-maximal activity (AC50) fell in the range of 1000 to 5000 nM.
`O=C(c1nnc(-c2ccn(C(F)(F)F)n2)o1)N1CCc2[nH]cnc2[C@H]1c1cc2c(Cl)cccn2n1` [Example 1476, (S)-(4-(4-chloropyrazolo [1,5-a]pyridin-2-yl)-6,7-dihydro-1H-imidazo[4,5-c]pyridin-5(4H)-yl)(5-(1-(trifluoromethyl)-1H-pyrazol-3-yl)-1,3,4-oxadiazol-2-yl)methanone]: the AC50 was less than 500 nM.
